Reference: patent publication US20030059956A1, “Method to follow progression of kidney disease” (priority 2001, published 2003)

System: urinary TGF-β1
Assay: Urinary TGF-β1 excretion in proteinuric patients, add-on losartan crossover trial on background lisinopril
Assay type: in vivo, human
Settings: add-on losartan 50 mg/d for 4 weeks on lisinopril 40 mg/d
Method: Patients previously administered angiotensin-receptor blockers (ARBs) or with estimated creatinine clearances of less than 30 mumin were excluded. A separate group of 12 healthy volunteers with normal BP, normal albuminuria, and no history of kidney disease or diabetes served as the control group for urinary TGF-β1 levels.
The study was a two-period, crossover, randomized, controlled trial. Seventeen (17) patients were administered a sequence of either losartan, 50 mg/d, for 4 weeks, 2-week washout, and placebo for 4 weeks or placebo for 4 weeks, 2-week washout, and losartan, 50 mg/d, for 4 weeks. […] Twenty-four-hour urine was collected for protein, sodium, urea, creatinine, and urinary TGF-β1 measurement. Because standard therapy for patients with proteinuria and renal failure includes ACE inhibitors, ACE inhibitor therapy was not discontinued in any patient enrolled in the study.
Appropriate corrections for concentrations were made and values were expressed as TGF-β1 in picograms per milligram of creatinine. […] TGF-β expressed as TGF-β in picograms per milligram of creatinine was calculated as follows:
The normality assumption was tested with the Kolmogrov Smirnov statistic, and homogeneity of variances was tested using Lavene's test. […] Data were analyzed by two-way mixed-model analysis of variance with subjects as the random variable and drug or placebo assignment as the fixed variable. […]

CCCCc1nc(Cl)c(CO)n1Cc1ccc(-c2ccccc2-c2nn[nH]n2)cc1 [losartan]
reduction in urinary TGF-β1 levels (95% CI 16 to 55, P=0.017): 38%
urinary TGF-β1 level after losartan (geometric mean, pre-losartan level 13.3 (95% CI 11.4 to 15.5)): 8.2 pg/mg creatinine
